Laboratory results published in patent publication US20210186997A1, “METHODS AND COMPOSITIONS FOR INCREASING NAD LEVEL IN MAMMALS WITH D-RIBOSE AND VITAMIN B3” (Bioenergy Life Science, Inc., priority 2018, published 2021).
Entries after “also recorded” stand apart in the source; their conditions may differ.

Key:
NR levels = test: Experiment 1: NR levels in blood by LC/MS after bolus administration; type: in vivo, Sprague-Dawley rats; details: male rats, bolus 100 mg/kg, 0.25-24 hours after feeding, compared to baseline, FIG. 2
Protocol: Four groups of four male Sprague-Dawley rats were each bolus administered the different compounds identified in the table below at a dosage of 100 mg per kg of body weight: [table] The blood drawn from each of the groups at the increments referenced above were also measured by LC/MS for NR levels. The measured NR levels are charted in FIG. 2, with each data point being the average of three animals of the same sex.

NAD levels = test: Experiment 1: NAD levels in blood by LC/MS after bolus administration; type: in vivo, Sprague-Dawley rats; details: for NAD levels in blood: male rats, bolus 100 mg per kg of body weight, 0.25-24 hours after feeding, compared to baseline, FIG. 1
Protocol: Four groups of four male Sprague-Dawley rats were each bolus administered the different compounds identified in the table below at a dosage of 100 mg per kg of body weight:
A blood sample of 0.1 ml was drawn from each rat of each group at increments of 0.25, 0.5, 1, 2, 4, 8 and 24 hours after feeding. Each of the blood samples were then measured by Liquid Chromatography/Mass Spectrometry (LC/MS) for NAD levels. The measured NAD levels are charted in FIG. 1, with each data point being the average of the four rats of each group.

NAD+ = test: Experiment 3: NAD+ in blood by LC/MS/MS, oral dosing twice daily for five days; type: in vivo, Sprague-Dawley male rats; details: Nicotinamide control (coated nicotinamide 108 mg/kg PO BID), relative to RiaGev dose-response line, FIG. 11
Protocol: Eighteen Sprague-Dawley male rats were selected as test animals in the study, with three rats for each of six treatment groups. Sprague-Dawley male rats were selected because they have been widely used in similar experiments with reliable results. The use of three rats per group offers the minimum number required to calculate useful means and standard deviations for graphical representation of the data. For five consecutive days, the rats were dosed at approximately 7:30-8:30 a.m. and at approximately 4:30-5:45 p.m. Blood was collected approximately 0.5 to 1.5 hours following each p.m. dosing and immediately processed and assayed for NAD+, NMN, and NR by LC/MS/MS. The timing of the supplementation doses was chosen to mimic behavior in humans and other non-nocturnal mammals (i.e., diurnal mammals) of eating breakfast in the morning and dinner in the early evening by administering the doses to the animals at around those times. […] Thus the evening sampling time for the rats would correspond to the morning for humans and other diurnal mammals. The animals were humanely euthanized after the final blood draw and representative samples of the liver, biceps muscle, peripheral adipose tissue, and whole brain were collected, snap frozen, extracted, and assayed for NAD+, NMN, and NR by LC/MS/MS. […]

Structure (SMILES) | NR levels in blood (NR levels) | NAD levels in blood (NAD levels) | time to peak blood NAD level (NAD levels; after consumption) | blood NAD concentration change over its base (water control) level (NAD+)
O=C[C@H](O)[C@H](O)[C@H](O)CO [D-ribose] | enhance NR levels | elevated NAD levels; also recorded: increases NAD levels |  | 
O=C(O)c1cccnc1 [Niacin, Nicotinic Acid (Niacin)] | enhance NR levels | elevated NAD levels |  | 
NC(=O)c1ccc[n+]([C@@H]2O[C@H](CO)[C@@H](O)[C@H]2O)c1 [Nicotinamide Riboside (NR), Nicotinamide Riboside] |  | highest peak value | about 8 hours | 
NC(=O)c1cccnc1 [Nicotinamide] |  |  |  | outside of the line
